{"source": "patent US8530650B2", "about": "“2, 5-diamino-substituted pyrido [4, 3-D] pyrimidines as autotaxin inhibitors against cancer” (MERCK PATENT GmbH, priority 2008, dated 2013)", "data": [{"molecular_target": "T1, recombinant autotaxin (Homo sapiens, UniProt Q13822)", "T1 construct": "made in house; host or cells: Hi5 insect cells (baculovirus)", "experiment": "Autotaxin assay (Amplex Red, LPC substrate)", "format": "biochemical", "conditions": "75 μM LPC, Amplex Red fluorescence, ten 1:3 dilutions starting at 30 μM", "how_it_was_run": "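Baculovirus (Hi5)-expressed autotaxin (16 ng) was preincubated with compound 30 min at 22° C., then reacted with 75 μM final egg LPC for 90 min at 37° C.; choline released was coupled via choline oxidase/peroxidase to Amplex Red, fluorescence read kinetically (ex 485/em 612 nm). IC50 from 10-point 1:3 dilutions from 30 μM, duplicates, normalized to 500 μM C14 LPA as 0%.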", "units": {"IC50": "µM"}, "values": [{"compound": "O=C(c1ccco1)N1CCN(c2nccc3nc(NCc4ccccc4Cl)ncc23)CC1", "note": "[Compound 113, {4-[2-(2-Chloro-benzylamino)-pyrido[4,3-d]pyrimidin-5-yl]-piperazin-1-yl}-furan-2-yl-methanone]", "IC50": "< 5"}, {"compound": "CN(C)CCNC(=O)C1CCN(c2nccc3nc(NCc4ccccc4Cl)ncc23)CC1", "note": "[Compound 64, 1-[2-(2-Chloro-benzylamino)-pyrido[4,3-d]pyrimidin-5-yl]-piperidine-4-carboxylic acid (2-dimethylamino-ethyl)-amide]", "IC50": "< 10"}, {"compound": "O=C(Nc1cccnc1)C1CCCN(c2nccc3nc(NCc4ccccc4Cl)ncc23)C1", "note": "(centres unmarked) [Compound 82, 1-[2-(2-Chloro-benzylamino)-pyrido[4,3-d]pyrimidin-5-yl]-piperidine-3-carboxylic acid pyridin-3-ylamide]", "IC50": "< 5"}, {"compound": "Clc1ccccc1CNc1ncc2c(NCCc3ccncc3)nccc2n1", "note": "[Compound 148, N2-(2-Chloro-benzyl)-N5-(2-pyridin-4-yl-ethyl)-pyrido[4,3-d]pyrimidine-2,5-diamine]", "IC50": "< 30"}, {"compound": "COC(=O)c1ccc(Nc2nccc3nc(NCc4ccc(Cl)cc4)ncc23)cc1", "note": "[Compound 50, 4-[2-(4-Chloro-benzylamino)-pyrido[4,3-d]pyrimidin-5-ylamino]-benzoic acid methyl ester]", "IC50": "< 30"}, {"compound": "O=C(Cc1cccnc1)N1CCN(c2nccc3nc(NCc4ccccc4Cl)ncc23)CC1", "note": "[Compound 121, 1-{4-[2-(2-Chloro-benzylamino)-pyrido[4,3-d]pyrimidin-5-yl]-piperazin-1-yl}-2-pyridin-3-yl-ethanone]", "IC50": "< 5"}, {"compound": "Cc1ccc(CNc2ncc3c(Nc4ccc(F)cc4C)nccc3n2)cc1", "note": "[Compound 19, N5-(4-Fluoro-2-methyl-phenyl)-N2-(4-methyl-benzyl)-pyrido[4,3-d]pyrimidine-2,5-diamine]", "IC50": "< 30"}, {"compound": "O=C(C1CCCN(c2nccc3nc(NCc4ccccc4Cl)ncc23)C1)N1CCN(c2ccccn2)CC1", "note": "(centres unmarked) [Compound 99, {1-[2-(2-Chloro-benzylamino)-pyrido[4,3-d]pyrimidin-5-yl]-piperidin-3-yl}-(4-pyridin-2-yl-piperazin-1-yl)-methanone]", "IC50": "< 5"}, {"compound": "CC(=O)c1ccc(Nc2nccc3nc(NCc4ccccc4Cl)ncc23)cc1", "note": "[Compound 13, 1-{4-[2-(2-Chloro-benzylamino)-pyrido[4,3-d]pyrimidin-5-ylamino]-phenyl}-ethanone]", "IC50": "< 30"}, {"compound": "O=C(CN1CCN(c2nccc3nc(NCc4ccccc4Cl)ncc23)CC1)Nc1cccnc1", "note": "[Compound 108, 2-{4-[2-(2-Chloro-benzylamino)-pyrido[4,3-d]pyrimidin-5-yl]-piperazin-1-yl}-N-pyridin-3-yl-acetamide]", "IC50": "< 10"}, {"compound": "CS(=O)(=O)CS(=O)(=O)N1CCN(c2nccc3nc(NCc4ccccc4Cl)ncc23)CC1", "note": "[Compound 156, (2-Chloro-benzyl)-[5-(4-methanesulfonylmethanesulfonyl-piperazin-1-yl)-pyrido[4,3-d]pyrimidin-2-yl]-amine]", "IC50": "< 30"}, {"compound": "CCOCCCNC(=O)C1CCN(c2nccc3nc(NCc4ccccc4Cl)ncc23)CC1", "note": "[Compound 98, 1-[2-(2-Chloro-benzylamino)-pyrido[4,3-d]pyrimidin-5-yl]-piperidine-4-carboxylic acid (3-ethoxy-propyl)-amide]", "IC50": "< 5"}, {"compound": "Clc1ccccc1CNc1ncc2c(NCCCN3CCCCC3)nccc2n1", "note": "[Compound 16, N2-(2-Chloro-benzyl)-N5-(3-piperidin-1-yl-propyl)-pyrido[4,3-d]pyrimidine-2,5-diamine]", "IC50": "< 30"}, {"compound": "COc1ccc(CNc2ncc3c(Nc4cc(OC)ccc4OC)nccc3n2)cc1", "note": "[Compound 51, N5-(2,5-Dimethoxy-phenyl)-N2-(4-methoxy-benzyl)-pyrido[4,3-d]pyrimidine-2,5-diamine]", "IC50": "< 30"}, {"compound": "O=C(NCCO)C1CCN(c2nccc3nc(NCc4ccccc4Cl)ncc23)CC1", "note": "[Compound 105, 1-[2-(2-Chloro-benzylamino)-pyrido[4,3-d]pyrimidin-5-yl]-piperidine-4-carboxylic acid (2-hydroxy-ethyl)-amide]", "IC50": "< 30"}, {"compound": "CC(C)CNc1nccc2nc(NCc3ccc(F)cc3)ncc12", "note": "[Compound 30, N2-(4-Fluoro-benzyl)-N5-isobutyl-pyrido[4,3-d]pyrimidine-2,5-diamine]", "IC50": "< 30"}, {"compound": "Cc1ccccc1Nc1nccc2nc(NCc3ccc(F)cc3)ncc12", "note": "[Compound 22, N2-(4-Fluoro-benzyl)-N5-o-tolyl-pyrido[4,3-d]pyrimidine-2,5-diamine]", "IC50": "< 30"}, {"compound": "O=C(NCc1ccco1)C1CCN(c2nccc3nc(NCc4ccccc4)ncc23)CC1", "note": "[Compound 60, 1-(2-Benzylamino-pyrido[4,3-d]pyrimidin-5-yl)-piperidine-4-carboxylic acid (furan-2-ylmethyl)-amide]", "IC50": "< 30"}, {"compound": "Fc1ccc(Nc2nccc3nc(NCc4ccccc4)ncc23)c(F)c1", "note": "[Compound 4, N2-Benzyl-N5-(2,4-difluoro-phenyl)-pyrido[4,3-d]pyrimidine-2,5-diamine]", "IC50": "< 30"}, {"compound": "Fc1ccc(CNc2ncc3c(NCc4ccc5nonc5c4)nccc3n2)cc1", "note": "[Compound 29, N5-Benzo[1,2,5]oxadiazol-5-ylmethyl-N2-(4-fluoro-benzyl)-pyrido[4,3-d]pyrimidine-2,5-diamine]", "IC50": "< 30"}, {"compound": "Cc1cc(F)ccc1Nc1nccc2nc(NCc3ccccc3)ncc12", "note": "[Compound 7, N2-Benzyl-N5-(4-fluoro-2-methyl-phenyl)-pyrido[4,3-d]pyrimidine-2,5-diamine]", "IC50": "< 30"}, {"compound": "Clc1ccccc1CNc1ncc2c(NCCN3CCCCC3)nccc2n1", "note": "[Compound 18, N2-(2-Chloro-benzyl)-N5-(2-piperidin-1-yl-ethyl)-pyrido[4,3-d]pyrimidine-2,5-diamine]", "IC50": "< 30"}, {"compound": "O=C(NC1CC1)C1CCCN(c2nccc3nc(NCc4ccccc4Cl)ncc23)C1", "note": "(centres unmarked) [Compound 86, 1-[2-(2-Chloro-benzylamino)-pyrido[4,3-d]pyrimidin-5-yl]-piperidine-3-carboxylic acid cyclopropylamide]", "IC50": "< 5"}, {"compound": "COc1ccccc1CNc1ncc2c(Nc3ccc(OC)c(OC)c3)nccc2n1", "note": "[Compound 38, N5-(3,4-Dimethoxy-phenyl)-N2-(2-methoxy-benzyl)-pyrido[4,3-d]pyrimidine-2,5-diamine]", "IC50": "< 30"}, {"compound": "COc1ccc(CNc2ncc3c(Nc4ccc5c(c4)OCO5)nccc3n2)cc1", "note": "[Compound 53, N5-Benzo[1,3]dioxol-5-yl-N2-(4-methoxy-benzyl)-pyrido[4,3-d]pyrimidine-2,5-diamine]", "IC50": "< 30"}, {"compound": "CC(C)NC(=O)C1CCN(c2nccc3nc(NCc4ccccc4Cl)ncc23)CC1", "note": "[Compound 67, 1-[2-(2-Chloro-benzylamino)-pyrido[4,3-d]pyrimidin-5-yl]-piperidine-4-carboxylic acid isopropylamide]", "IC50": "< 5"}, {"compound": "COCCNC(=O)C1CCN(c2nccc3nc(NCc4ccccc4Cl)ncc23)CC1", "note": "[Compound 70, 1-[2-(2-Chloro-benzylamino)-pyrido[4,3-d]pyrimidin-5-yl]-piperidine-4-carboxylic acid (2-methoxy-ethyl)-amide]", "IC50": "< 5"}, {"compound": "Cc1cc(NC(=O)C2CCCN(c3nccc4nc(NCc5ccccc5Cl)ncc34)C2)no1", "note": "(centres unmarked) [Compound 87, 1-[2-(2-Chloro-benzylamino)-pyrido[4,3-d]pyrimidin-5-yl]-piperidine-3-carboxylic acid (5-methyl-isoxazol-3-yl)-amide]", "IC50": "< 30"}, {"compound": "O=C(NCc1ccco1)C1CCCN(c2nccc3nc(NCc4ccccc4Cl)ncc23)C1", "note": "(centres unmarked) [Compound 83, 1-[2-(2-Chloro-benzylamino)-pyrido[4,3-d]pyrimidin-5-yl]-piperidine-3-carboxylic acid (furan-2-ylmethyl)-amide]", "IC50": "< 30"}, {"compound": "COc1ccc(CNc2ncc3c(Nc4ccc(F)c(F)c4)nccc3n2)cc1", "note": "[Compound 58, N5-(3,4-Difluoro-phenyl)-N2-(4-methoxy-benzyl)-pyrido[4,3-d]pyrimidine-2,5-diamine]", "IC50": "< 30"}, {"compound": "CCN(CC)CCNC(=O)C1CCN(c2nccc3nc(NCc4ccccc4Cl)ncc23)CC1", "note": "[Compound 96, 1-[2-(2-Chloro-benzylamino)-pyrido[4,3-d]pyrimidin-5-yl]-piperidine-4-carboxylic acid (2-diethylamino-ethyl)-amide]", "IC50": "< 5"}, {"compound": "COc1ccc(Nc2nccc3nc(NCc4ccccc4)ncc23)cc1OC", "note": "[Compound 6, N2-Benzyl-N5-(3,4-dimethoxy-phenyl)-pyrido[4,3-d]pyrimidine-2,5-diamine]", "IC50": "< 30"}, {"compound": "CCOC(=O)N1CCN(c2nccc3nc(NCc4ccccc4Cl)ncc23)CC1", "note": "[Compound 114, 4-[2-(2-Chloro-benzylamino)-pyrido[4,3-d]pyrimidin-5-yl]-piperazine-1-carboxylic acid ethyl ester]", "IC50": "< 5"}, {"compound": "COc1ccc(Nc2nccc3nc(NCc4ccc(F)cc4)ncc23)cc1", "note": "[Compound 23, N2-(4-Fluoro-benzyl)-N5-(4-methoxy-phenyl)-pyrido[4,3-d]pyrimidine-2,5-diamine]", "IC50": "< 30"}, {"compound": "O=C(NCc1ccco1)C1CCN(c2nccc3nc(NCc4ccccc4Cl)ncc23)CC1", "note": "[Compound 65, 1-[2-(2-Chloro-benzylamino)-pyrido[4,3-d]pyrimidin-5-yl]-piperidine-4-carboxylic acid (furan-2-ylmethyl)-amide]", "IC50": "< 5"}, {"compound": "O=C(O)CN1CCN(c2nccc3nc(NCc4ccccc4Cl)ncc23)CC1", "note": "[Compound 145, {4-[2-(2-Chloro-benzylamino)-pyrido[4,3-d]pyrimidin-5-yl]-piperazin-1-yl}-acetic acid]", "IC50": "< 10"}, {"compound": "c1ccc(CNc2ncc3c(N4CCCC4)nccc3n2)cc1", "note": "[Compound 1, Benzyl-(5-pyrrolidin-1-yl-pyrido[4,3-d]pyrimidin-2-yl)-amine]", "IC50": "< 30"}, {"compound": "COc1ccc(CNc2ncc3c(Nc4ccc(OC)cc4OC)nccc3n2)cc1", "note": "[Compound 56, N5-(2,4-Dimethoxy-phenyl)-N2-(4-methoxy-benzyl)-pyrido[4,3-d]pyrimidine-2,5-diamine]", "IC50": "< 30"}]}]}
